Results on 1 molecule are retold here after patent US11351185B2, “Use of isovalerylspiramycins as anti-cancer agents to inhibit metastasis” (priority 2020, dated 2022).

For one data set, the system named is LN229-luc tumors. Briefly: Intracranial LN229-luc glioblastoma xenograft mouse model. The class given is in vivo, NSG mice. The text has this:
The inventors first assessed ISP I's anti-tumor activity in an intracranial mouse model (FIG. 11A). NSG mice were inoculated with 1×10^5 LN229-luc cells in the right-frontal cortex. After 7 days, intracranial tumor growth was confirmed via noninvasive in vivo bioluminescence imaging and mice were randomized into ISP I or DMSO (control) treatment groups.
Mice experiments were approved by the National Institute of Neurological Disorders and Stroke (NINDS) and National Cancer Institute (NCI) Animal Use and Care Committees. For intracranial xenografts establishment, NOD-Prkdc^scidII2rg^tmiWjl (NSG) mice (6-8 weeks old from the NCI-Frederick animal facility) were inoculated intracranially with 100,000 LN229-luc cells suspended in 2 μL Hank's Balanced Salt Solution (HBSS), a product of Crystalgen (Commack, N.Y. USA). After one week, luciferin signals were detected to confirm the survival of tumor cells in mice. The mice were assigned to the indicated groups according to the signal intensity, in order to keep the baseline balanced. ISP I was injected intraperitoneally daily at a dose of 66 mg/kg body weight for 24 days. The mice in control group were injected with the same volume of corn oil or saline. The viability of tumors was monitored every four days. […]

The next data set deals with 786-O and RCC4 cells. Briefly: Annexin V apoptosis flow cytometry, RCC cells. The class given is cell-based. As for the experimental part:
To confirm the cytotoxic effect observed in the glioblastoma cell lines, the inventors assessed ISP I's effect on renal cell carcinoma (RCC) cell lines (ACHN, UM-RC-2, RCC4 and 786-0). Cell viability was assessed similarly via CKK8 analysis. […] (FIG. 4C, D).
Cells (2×10^5) were plated in 6-well plates and treated with different concentrations of ISP I. Then the cells were harvested and washed three times with PBS. Cells were resuspended in 100 μl binding buffer and were incubated with 5 μl APC-conjugated Annexin V working solution, a product of BD bioscience (Franklin Lakes, N.J. USA), and 1 μl propidium iodide (PI), a product of Invitrogen, for 15 min at room temperature with protection from light. Data acquisition and quantification were processed with BD LSRFortessa flow cytometer, using FlowJo software (Ashland, Oreg. USA).
(Flow cytometry measures light scatter and fluorescence of single cells or particles in a stream.)

Data set [1] deals with mitochondrial ROS (superoxide). Briefly: MitoSOX staining, flow cytometry. It counts as cell-based. The following applies: 24 hours. The method, then:
(§1) Since glutathione peroxidase catalyzes the reduction of reactive oxidative species (ROS), the inventors assessed whether treatment with ISP I increased the generation of ROS in glioblastoma cell lines (LN229 and U251) and RCC cell lines (786-O and RCC4).
To detect changes in mitochondrial superoxide after treatment with ISP I, the inventors used the MitoSOX Red mitochondrial superoxide indicator kit, a product of ThermoFisher Scientific. […] Cells were incubated with 5 μM MitoSOX Red for 15 min at room temperature, followed by flow cytometry analysis. Excitation by means of a 561 nm laser and a 610/20 discriminating filter was applied by a BD LSRFortessa flow cytometer.

A further data set has as its system IOMM tumors. Briefly: IOMM meningioma subcutaneous xenograft mouse model. The class given is in vivo, Nude mice. The following applies: 35 mg/kg i.p. daily; 18 days after treatment. The method, then:
For subcutaneous xenografts, NSG mice (6-8 weeks old) from the NCI-Frederick animal facility and Jackson Lab (Bar Harbor, Me. USA) were injected with 5×10^6 to 1×10^7 cells subcutaneously in the flank. One week later, the tumor-bearing mice were randomly assigned to different groups and made the tumor volume baseline equivalent and treated with normal saline or Zenomycin (35 mg/kg) everyday intraperitoneally. Tumors were measured using a caliper, and volume was calculated.

For the next data set, the system named is γH2AX. Briefly: γH2AX immunofluorescence staining and western blot (DNA damage). The class given is cell-based. The following applies: 6 hours. As for the experimental part:
It is well-established that increased levels of ROS in cells leads to oxidative DNA damage, inducing genomic instability and inhibiting cell cycle progression. Cooke et al., FASEB J. 17: 1195 (2003). Since ISP I downregulates SELH, a key regulator of ROS response elements, the inventors first assessed whether treatment with ISP I augmented DNA damage in vitro.
Western blotting was performed to detect the protein expression level of SELH, NRF2 and γH2AX regulated by ISP I. The cells were lysed by RIPA buffer from ThermoFisher Scientific, and the concentration was measured using DC Protein Assay, a Bio-Rad product. Equal amounts of protein of each sample were loaded for gel electrophoresis and were transferred to nitrocellulose membrane, blocked and incubated overnight at 4° C. with primary antibodies. Then the membranes were washed with TBST (3 times, 10 min each). Exposure, imaging, and data analysis were done using a KwikQuant Imager system, a product of Kindle Biosciences (Greenwich, Conn. USA). The following antibodies were used: anti-phospho-histone H2A.X (Ser139), anti-NRF2 (Cell Signaling, Danvers, Mass. USA), anti-SELH (Abcam, Cambridge, Mass. USA), anti-GAPDH (Millipore, Temecula, Calif. USA).
For immunofluorescence assay, cells were seeded on a 35-mm confocal dish with glass bottom and were treated with ISP I. […] Then the cells were incubated with secondary antibody conjugated with Alexa Fluor-594 (Invitrogen), followed by staining with DAPI for nuclei. Images were obtained using Zeiss LSM 780 microscopy (Carl Zeiss, Oberkochen Germany).

A short description of data set [2]: Tolerability in xenograft mouse models (bodyweight, histopathology, clinical chemistry). It counts as in vivo, mice.
Data set [3] has as its system glutathione-dependent peroxidases (SELH enzyme activity). Briefly: Glutathione peroxidase activity assay. The following applies: LN229 cells. The class given is cell-based.
Excerpt: as §1
Glutathione peroxidase kit (Abcam, Cambridge, Mass. USA) was used to quantitate the activity of all of the glutathione-dependent peroxidases in live cells (2×10^6), which were harvested and homogenized with assay buffer provided in the kit. Then the supernatant was collected and incubated in accordance with the manufacturer's instructions. Absorbance at 340 nm was measured using the microplate reader mentioned above.

Where [4] appears, read: LN229, 786-O and IOMM xenograft mouse models.

SMILES strings stand for the structures. Entries after “also recorded” stand apart in the source; their conditions may differ.

For `COC1C(O)CC(=O)OC(C)CC=CC=CC(OC2CCC(N(C)C)C(C)O2)C(C)CC(CC=O)C1OC1OC(C)C(OC2CC(C)(O)C(OC(=O)CC(C)C)C(C)O2)C(N(C)C)C1O` (stereo not shown) [ISP I, 4″-isolvalerylspiramycin I], the “tumor growth / burden (bioluminescence imaging)” value in the data set with LN229-luc tumors (66 mg/kg body weight i.p. every day) is given as “reduced LN229-luc tumor burden compared with the untreated group; also recorded: significantly reduced tumor growth”. The “response in tumor-derived bioluminescence images” value in the data set with LN229-luc tumors (three mice, day 24, 66 mg/kg i.p. daily) is reported as “complete response”. Besides, the “apoptosis (Annexin V stain)” value with 786-O and RCC4 cells is “induced a dose-dependent apoptosis”. The “mitochondrial ROS (MitoSOX)” value in data set [1] (LN229 and U251, 5 μg/mL or 10 μg/mL) is recorded as “increase of mitochondrial ROS accumulation; also recorded: higher intracellular ROS in a dose-dependent manner”; in data set [1] (RCC cells 786-O and RCC4, 5 μg/ml or 10 μg/ml), “increase in mitochondrial ROS accumulation; also recorded: higher intracellular ROS in a dose-dependent manner”. The “tumor size, weight and burden” value with IOMM tumors was “reduced IOMM tumor burden; also recorded: significantly reduced tumor size and weight”. Further, the “γH2AX expression (DNA damage marker)” value with γH2AX (786-O and RCC4) was “increase of γH2AX expression”; in the data set with γH2AX (LN229 and U251), “higher quantities of γH2A.X”; with γH2AX (LN229 and U251, listed as ISP 1) it was “increase of γH2AX expression”. The “histopathology of major organs and standard clinical chemistry” value in data set [2] (24 days after treatment) is “no hematologic, renal, pancreatic or liver toxicities”. In addition, the bodyweight during treatment entry in data set [2] (setting [4]) is given as “bodyweight maintenance; also recorded: animals maintained their bodyweight”. Moreover, the tolerability of treatment result in data set [2] (setting [4]) is “well-tolerated”. Moreover, the glutathione peroxidase activity entry in data set [3] was “decrease, in a dose-dependent manner, of SELH enzyme activity; also recorded: significantly reduced glutathione peroxidase activity”.
